In ChEMBL document CHEMBL1140283, “Novel, potent small-molecule inhibitors of the molecular chaperone Hsp90 discovered through structure-based design” (J Med Chem, 2005):

How the values were obtained:
[1] = target: ATP-dependent molecular chaperone HSC82 (Saccharomyces cerevisiae S288c, UniProt P15108); assay: Inhibitory concentration against ATPase activity of Hsp90 of Saccharomyces cerevisiae was determined by ATPase activity assay
[2] = target: Heat shock protein HSP 90-alpha (Homo sapiens, UniProt P07900); assay: Inhibitory concentration against activity of Hsp90 was determined by fluorescence polarization (FP) assay
HCT-116 [3] = assay: Inhibitory concentration against cell proliferation of human HCT116 cells; assay type: functional
HCT-116 [4] = assay: Inhibitory concentration against cell proliferation of human HCT116 cell; assay type: functional
[5] = Homo sapiens, HCT-116, read-out: GI50

Chain of ATP-dependent molecular chaperone HSC82 (P15108 whole entry): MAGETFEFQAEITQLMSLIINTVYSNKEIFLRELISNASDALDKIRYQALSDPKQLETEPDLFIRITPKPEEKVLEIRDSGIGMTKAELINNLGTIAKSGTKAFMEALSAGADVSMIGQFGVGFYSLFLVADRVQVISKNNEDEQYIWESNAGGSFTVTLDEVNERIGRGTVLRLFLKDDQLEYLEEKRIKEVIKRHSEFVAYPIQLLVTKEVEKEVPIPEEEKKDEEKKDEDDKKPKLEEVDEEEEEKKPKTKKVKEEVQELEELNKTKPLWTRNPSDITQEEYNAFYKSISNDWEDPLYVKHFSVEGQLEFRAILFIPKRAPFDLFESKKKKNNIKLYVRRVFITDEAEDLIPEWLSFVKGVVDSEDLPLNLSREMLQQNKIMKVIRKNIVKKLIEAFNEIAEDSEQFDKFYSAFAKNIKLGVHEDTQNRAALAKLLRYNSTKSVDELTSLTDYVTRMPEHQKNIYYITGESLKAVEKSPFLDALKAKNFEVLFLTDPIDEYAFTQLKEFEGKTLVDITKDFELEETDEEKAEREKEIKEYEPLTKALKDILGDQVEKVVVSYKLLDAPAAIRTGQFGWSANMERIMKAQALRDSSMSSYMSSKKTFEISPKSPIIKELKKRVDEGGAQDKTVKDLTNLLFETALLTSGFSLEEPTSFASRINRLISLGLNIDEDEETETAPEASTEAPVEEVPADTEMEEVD

| Compound | IC50 [1] [nM] | IC50 [2] [nM] | GI50 (HCT-116 [3]; [5]) [nM] | GI50 (HCT-116 [3]) [nM] | GI50 (HCT-116 [4]) [nM] |
| --- | --- | --- | --- | --- | --- |
| Cc1n[nH]c(-c2ccc(O)cc2O)c1-c1ccc2c(c1)OCCO2 | 23000 | 4730 | 34800 | – | – |
| CCNC(=O)c1[nH]nc(-c2cc(Br)c(O)cc2O)c1-c1ccc(OC)cc1 | 390 | – | 938 | – | – |
| Cc1[nH]nc(-c2cc(Cl)c(O)cc2O)c1-c1ccc2c(c1)OCCO2 | 650 | – | 14900 | – | – |
| COc1ccc(-c2c(-c3ccc(O)cc3O)n[nH]c2C)cc1 | 36900 | – | 33300 | – | – |
| COc1ccc(-c2c(C)n[nH]c2-c2cc(Br)c(O)cc2O)cc1 | 1900 | 62 | 6100 | – | – |
| CCNC(=O)c1[nH]nc(-c2cc(Cl)c(O)cc2O)c1-c1ccc(OC)cc1 | 140 | – | – | – | – |
| COc1ccc(-c2c(-c3cc(Cl)c(O)cc3O)n[nH]c2C(=O)NC(C)C)cc1 | 1500 | 120 | 1900 | – | – |
| COc1ccc(-c2c(-c3cc(Cl)c(O)cc3O)n[nH]c2C(N)=O)cc1 | 420 | 53 | 1100 | – | – |
| COc1ccc(-c2c(C)n[nH]c2-c2cc(Cl)c(O)cc2O)cc1 | 1700 | 150 | 6700 | – | – |
| CCc1cc(-c2n[nH]c(C)c2-c2ccc3c(c2)OCCO3)c(O)cc1O | 5700 | – | 5800 | – | – |
| CNC(=O)c1[nH]nc(-c2cc(Cl)c(O)cc2O)c1-c1ccc(OC)cc1 | 110 | 39 | 680 | – | – |
| COc1ccc(-c2c(-c3cc(Cl)c(O)cc3O)n[nH]c2C(=O)O)cc1 | 2300 | 510 | – | > 80000 | – |
| C[C@@H]1C[C@H]2O[C@@H]2/C=C\C=C\C(=O)Cc2c(Cl)c(O)cc(O)c2C(=O)O1 [RADICICOL] | 200 | – | – | – | 130 |
| C=CCNC1=C2C[C@@H](C)C[C@H](OC)[C@H](O)[C@@H](C)/C=C(\C)[C@H](OC(N)=O)[C@@H](OC)/C=C\C=C(/C)C(=O)NC(=CC1=O)C2=O [TANESPIMYCIN] | 13400 | – | – | – | 160 |
